Test results as given in ChEMBL document CHEMBL1201862, “PubChem BioAssay data set” (2004).
Activity calls are given as the source filed them.

How the values were obtained:
[1] = target: T1, RNA-binding protein pos-1 (Caenorhabditis elegans, UniProt G5EF15); assay: inhibitors of POS-1/mex-3 RNA binding, dose response, biochemical, fluorescence polarization (AID 1964);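 note: purified POS-1 fused to maltose binding protein made in E. coli; potency of compounds blocking POS-1 binding to fluorescent RNA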
T1 sequence (G5EF15 whole entry): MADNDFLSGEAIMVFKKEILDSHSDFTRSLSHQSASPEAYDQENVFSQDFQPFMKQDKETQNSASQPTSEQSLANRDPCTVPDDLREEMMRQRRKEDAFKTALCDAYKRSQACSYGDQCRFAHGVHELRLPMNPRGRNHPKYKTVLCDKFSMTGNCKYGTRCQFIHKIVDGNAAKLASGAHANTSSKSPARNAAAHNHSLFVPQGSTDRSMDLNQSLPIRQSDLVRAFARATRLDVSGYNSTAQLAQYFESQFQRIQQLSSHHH

[2] = target: T2, Zinc finger protein mex-5 (Caenorhabditis elegans, UniProt Q9XUB2); assay: MEX-5/TCR-2 RNA interaction inhibitors, dose response, biochemical, C. elegans, fluorescence polarization (AID 1960)
T2 sequence (Q9XUB2 whole entry): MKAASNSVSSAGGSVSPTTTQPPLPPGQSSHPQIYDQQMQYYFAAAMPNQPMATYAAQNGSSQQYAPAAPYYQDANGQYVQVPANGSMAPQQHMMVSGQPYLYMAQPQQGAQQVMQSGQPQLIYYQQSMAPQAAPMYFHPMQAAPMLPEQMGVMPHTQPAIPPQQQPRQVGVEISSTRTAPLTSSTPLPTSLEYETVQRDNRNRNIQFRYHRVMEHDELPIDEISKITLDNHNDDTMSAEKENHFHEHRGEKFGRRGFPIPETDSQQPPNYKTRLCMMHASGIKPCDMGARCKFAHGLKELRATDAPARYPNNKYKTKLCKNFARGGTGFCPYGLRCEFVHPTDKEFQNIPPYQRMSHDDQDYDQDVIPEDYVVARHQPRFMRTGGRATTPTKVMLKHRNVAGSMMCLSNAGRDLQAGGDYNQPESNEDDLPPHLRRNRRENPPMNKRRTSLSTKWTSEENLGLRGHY

[3] = test system: Streptococcus sp. 'group A'; assay: growth inhibition of control SK(-) GAS strain, dose response, counter-screen for streptokinase expression inhibitor project, luminescence, kanamycin, BacTiterGlo, confirmation (AID 1900); format: functional, organism-based
[4] = target: T3, Streptokinase A (Streptococcus pyogenes serotype M1, UniProt P10520); assay: S. pyogenes streptokinase expression inhibitors, potency, dose response, plasminogen activation absorbance, OD405 (AID 1914); format: functional, Streptococcus pyogenes M1 GAS;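 note: secreted streptokinase activity via plasminogen activation per viability signal from cell pellet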
T3 sequence (P10520 whole entry): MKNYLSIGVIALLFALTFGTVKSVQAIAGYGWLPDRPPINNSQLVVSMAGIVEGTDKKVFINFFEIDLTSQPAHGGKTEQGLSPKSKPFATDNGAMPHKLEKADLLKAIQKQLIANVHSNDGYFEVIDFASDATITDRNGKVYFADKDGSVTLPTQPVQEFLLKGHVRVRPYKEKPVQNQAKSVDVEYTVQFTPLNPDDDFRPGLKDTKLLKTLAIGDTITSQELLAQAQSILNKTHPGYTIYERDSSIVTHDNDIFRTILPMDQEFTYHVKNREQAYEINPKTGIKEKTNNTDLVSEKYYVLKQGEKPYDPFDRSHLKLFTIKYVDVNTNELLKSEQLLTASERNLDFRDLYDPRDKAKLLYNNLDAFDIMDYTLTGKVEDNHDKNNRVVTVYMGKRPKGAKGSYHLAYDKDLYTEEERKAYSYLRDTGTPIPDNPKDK

[5] = target: Luciferin 4-monooxygenase (Photinus pyralis, UniProt P08659); assay: firefly luciferase enzyme inhibitors, dose response, biochemical, luminescence (AID 1891)
[6] = Luminescence Cell-Based Dose Confirmation HTS to Identify Inhibitors of Platelet Dense Granule Release. [Related pubchem assays: 1663 (Primary HTS), 1678 (Summary of Project)]; format: functional
[7] = test system: Streptococcus; assay: Group A Streptococcus viability loss, dose response, counter-screen for streptokinase expression inhibitor project, luminescence, BacTiterGlo (AID 1915); format: functional, organism-based;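 note: potency for reduction of bacterial viability or growth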
[8] = target: Cytochrome P450 2C9 (Homo sapiens, UniProt P11712)
[9] = inhibitors of firefly luciferase expression or activity, dose response, H4 neuroglioma cells, luminescence (AID 1990); format: functional, cell-based
[10] = Luminescence Cell-Based Dose Response HTS to Identify Inhibitors of 5'UTR Stem-Loop Driven Prion Protein mRNA Translation in H4 Neuroglioblastoma Cells. [Related pubchem assays: 1827 (Project Summary), 1813 (Primary HTS)]; format: functional
[11] = inhibitors of SNCA 5'UTR-driven reporter translation, confirmation, H4 neuroglioma cells, luminescence (AID 1988); format: functional, cell-based
[12] = test system: INS1; assay: beta cell apoptosis inhibitors, cytokine rescue, dose response, luminescence, retest (AID 449756); format: functional, cell-based; conditions: Rattus norvegicus;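 note: cell death triggered by IL-1 beta plus TNF-alpha plus IFN-gamma mixture; protective hits raise ATP signal compared with cytokine alone wells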
[13] = target: Cytochrome P450 2D6 (Homo sapiens, UniProt P10635);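 note: CYP2D6 member of a cytochrome P450 panel assay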
[14] = target: T4, Cytochrome P450 1A2 (Homo sapiens, UniProt P05177);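 note: PubChem cytochrome P450 panel assay, CYP1A2 panel member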
T4 sequence (P05177 whole entry): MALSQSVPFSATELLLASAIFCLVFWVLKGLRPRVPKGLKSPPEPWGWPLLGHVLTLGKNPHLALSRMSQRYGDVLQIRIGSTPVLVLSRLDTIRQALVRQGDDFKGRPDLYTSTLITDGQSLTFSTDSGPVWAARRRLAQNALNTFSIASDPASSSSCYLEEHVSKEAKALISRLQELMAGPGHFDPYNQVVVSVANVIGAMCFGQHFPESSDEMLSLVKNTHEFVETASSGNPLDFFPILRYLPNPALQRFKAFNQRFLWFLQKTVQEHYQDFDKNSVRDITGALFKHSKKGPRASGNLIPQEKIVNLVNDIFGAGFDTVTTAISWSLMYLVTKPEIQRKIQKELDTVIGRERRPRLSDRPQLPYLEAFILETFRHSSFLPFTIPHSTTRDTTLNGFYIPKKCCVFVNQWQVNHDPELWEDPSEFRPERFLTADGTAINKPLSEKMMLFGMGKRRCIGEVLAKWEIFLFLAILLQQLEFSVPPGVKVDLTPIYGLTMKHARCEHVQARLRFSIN

[15] = target: Cytochrome P450 2C19 (Homo sapiens, UniProt P33261); assay: Cytochrome panel assay with activity outcomes. Panel member name: p450-cyp2c19 Compounds with AC50 equal or less than 10 uM are considered active; format: functional; conditions: read-out: AC50
Sequence of Cytochrome P450 2C19 (P33261 whole entry): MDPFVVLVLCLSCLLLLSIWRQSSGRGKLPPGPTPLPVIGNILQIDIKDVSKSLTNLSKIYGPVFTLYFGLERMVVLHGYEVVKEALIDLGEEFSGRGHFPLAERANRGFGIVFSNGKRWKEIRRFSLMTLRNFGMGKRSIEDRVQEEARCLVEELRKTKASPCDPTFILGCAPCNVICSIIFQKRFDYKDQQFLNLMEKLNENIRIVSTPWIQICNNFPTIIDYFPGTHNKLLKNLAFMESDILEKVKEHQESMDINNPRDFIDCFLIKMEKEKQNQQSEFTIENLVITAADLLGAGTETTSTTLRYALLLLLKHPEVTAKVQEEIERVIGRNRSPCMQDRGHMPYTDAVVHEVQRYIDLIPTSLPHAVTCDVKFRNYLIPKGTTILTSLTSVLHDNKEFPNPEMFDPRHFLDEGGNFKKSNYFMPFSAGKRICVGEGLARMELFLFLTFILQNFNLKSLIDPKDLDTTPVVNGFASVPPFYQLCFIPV

Sequence of Cytochrome P450 2C9 (P11712 whole entry): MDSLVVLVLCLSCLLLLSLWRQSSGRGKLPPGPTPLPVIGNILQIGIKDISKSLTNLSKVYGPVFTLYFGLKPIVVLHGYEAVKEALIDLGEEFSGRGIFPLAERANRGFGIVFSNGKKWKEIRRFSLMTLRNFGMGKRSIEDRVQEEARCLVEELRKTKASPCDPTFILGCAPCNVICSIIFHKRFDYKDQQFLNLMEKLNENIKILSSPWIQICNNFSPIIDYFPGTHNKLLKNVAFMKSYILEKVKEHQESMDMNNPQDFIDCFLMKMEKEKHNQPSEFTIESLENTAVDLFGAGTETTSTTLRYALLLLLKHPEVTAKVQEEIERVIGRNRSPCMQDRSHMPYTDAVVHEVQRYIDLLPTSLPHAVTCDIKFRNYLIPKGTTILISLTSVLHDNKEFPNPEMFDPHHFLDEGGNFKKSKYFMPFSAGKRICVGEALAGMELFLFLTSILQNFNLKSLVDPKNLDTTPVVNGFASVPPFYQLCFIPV
Sequence of Luciferin 4-monooxygenase (P08659 whole entry): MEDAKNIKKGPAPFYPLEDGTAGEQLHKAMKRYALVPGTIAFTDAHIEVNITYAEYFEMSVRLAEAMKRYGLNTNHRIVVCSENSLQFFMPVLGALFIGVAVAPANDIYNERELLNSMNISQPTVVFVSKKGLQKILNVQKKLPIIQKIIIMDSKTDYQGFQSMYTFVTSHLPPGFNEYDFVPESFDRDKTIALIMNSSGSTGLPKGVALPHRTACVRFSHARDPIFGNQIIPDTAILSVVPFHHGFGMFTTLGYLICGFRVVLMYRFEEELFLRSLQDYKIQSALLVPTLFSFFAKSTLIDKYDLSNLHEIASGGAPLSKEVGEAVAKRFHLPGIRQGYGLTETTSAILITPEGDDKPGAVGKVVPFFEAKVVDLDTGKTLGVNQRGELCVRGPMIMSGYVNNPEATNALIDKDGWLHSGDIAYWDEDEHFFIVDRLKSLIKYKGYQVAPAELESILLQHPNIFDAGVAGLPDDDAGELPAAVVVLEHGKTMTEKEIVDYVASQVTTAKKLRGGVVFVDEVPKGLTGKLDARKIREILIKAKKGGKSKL
Sequence of Cytochrome P450 2D6 (P10635 whole entry): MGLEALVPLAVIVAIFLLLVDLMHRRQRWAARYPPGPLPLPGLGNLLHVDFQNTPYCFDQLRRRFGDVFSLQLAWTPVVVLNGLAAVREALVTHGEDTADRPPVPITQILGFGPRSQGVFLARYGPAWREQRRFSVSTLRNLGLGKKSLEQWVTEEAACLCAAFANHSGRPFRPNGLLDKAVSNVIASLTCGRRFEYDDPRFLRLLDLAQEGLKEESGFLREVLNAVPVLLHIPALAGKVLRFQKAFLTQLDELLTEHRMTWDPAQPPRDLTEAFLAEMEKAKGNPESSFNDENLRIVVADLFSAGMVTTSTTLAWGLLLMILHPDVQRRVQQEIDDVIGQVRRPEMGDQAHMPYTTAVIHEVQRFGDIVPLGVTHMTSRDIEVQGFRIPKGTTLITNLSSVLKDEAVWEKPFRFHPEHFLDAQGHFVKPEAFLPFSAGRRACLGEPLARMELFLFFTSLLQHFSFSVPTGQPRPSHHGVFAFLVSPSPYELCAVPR

Cc1cc(/C=C2\C(=O)NC(=O)N(c3ccc(Cl)cc3)C2=O)c(C)n1C
EC50 [1]: 63.5 µM (active)

Cc1ccc(C(=O)C2=C(O)C(=O)N(Cc3ccco3)C2c2ccc(N(C)C)cc2)o1 (stereo not drawn)
EC50 [1]: > 300 µM (not active)
EC50 [2]: > 300 µM (not active)

CC(Oc1ccc(F)cc1)C(=O)Nc1ccccc1N1CCCCC1 (stereo not drawn)
EC50 [3]: 11.8 µM (active)
EC50 [4]: 10.3 µM (active)
EC50 [5]: 27.3 µM (active)
EC50 [6]: 21 µM (active)
EC50 [7]: 19.9 µM (active)

COc1cc(CNCc2cccs2)cc(Br)c1OC
AC50 [8]: 1.41 µM (inconclusive)

O=c1c(CCc2ccccc2)nc2cnc(Nc3ccccc3)nc2n1C[C@H]1CCCO1
AC50 [8]: 20 µM (inconclusive)

COC(=O)c1cc(NC(=O)c2c(Cl)nc3sccn23)cc(C(=O)OC)c1
EC50 [9]: 12.3 µM (active)
EC50 [10]: 10.6 µM (active)
EC50 [11]: 9.13 µM (active)

CCCCCN1C=CC=C/C1=C\C=C(C#N)C#N
EC50 [1]: 30.3 µM (inconclusive)
EC50 [2]: > 300 µM (not active)

Cc1n[nH]c(NNC(=O)c2ccccc2)c1[N+](=O)[O-]
EC50 [1]: 15.2 µM (active)
EC50 [2]: 4.96 µM (active)

CCOC(=O)C1=C(CNCc2ccc(F)cc2)NC(=O)NC1c1cccc([N+](=O)[O-])c1 (stereo not drawn)
EC50 [5]: > 112 µM (not active)
EC50 [6]: > 112 µM (not active)

N#Cc1ccc(C(=O)Nc2nc(-c3cccs3)c(C(=O)C(F)(F)F)s2)cc1
AC50 [12]: 4.75 µM (active)

O=c1oc(Nc2ccc(F)cc2)nc2ccccc12
EC50 [5]: 8.06 µM (active)
EC50 [6]: 4.03 µM (active)

CC1CN(c2nc3ccccc3nc2C(C#N)C(=O)NC2CCCCC2)CC(C)O1 (stereo not drawn)
EC50 [1]: > 300 µM (not active)
EC50 [2]: > 300 µM (inconclusive)

COc1cc(OC)c(C2C(C#N)=C(N)OC3=C2C(=O)CC(C)(C)C3)cc1OC (stereo not drawn)
EC50 [1]: > 300 µM (not active)
EC50 [2]: > 300 µM (not active)

O=C(Cn1cc(C(=O)C(F)(F)F)c2ccccc21)NCc1ccco1
EC50 [5]: > 112 µM (not active)
EC50 [6]: > 112 µM (not active)

O=c1cnc2cncnc2n1Cc1ccccc1Cl
AC50 [13]: 20 µM (inconclusive)
AC50 [14]: 15.8 µM (inconclusive)
AC50 [8]: 20 µM (inconclusive)

COc1ccc(NC(=O)c2sc3nc(-c4cccnc4)ccc3c2N)cc1
EC50 [1]: 40.6 µM (inconclusive)
EC50 [2]: 4.79 µM (active)

COC(=O)C1CSc2[nH]c(=O)sc2C1c1ccccc1 (stereo not drawn)
EC50 [1]: 7.13 µM (active)
EC50 [2]: 7.46 µM (active)

COc1cccc(C(=O)NCC2CCN(c3ccc(S(=O)(=O)N4CCOCC4)cc3)CC2)c1
EC50 [1]: > 300 µM (not active)
EC50 [2]: > 300 µM (not active)

C/C=C(/C)C(=O)Nc1cccc(C2=NOC3(C2)C[C@H](C(N)=O)N(C(=O)COc2ccc(Cl)cc2)C3)c1 (stereo partly drawn)
EC50 [9]: > 120 µM (not active)
EC50 [10]: 87.6 µM (active)
EC50 [11]: > 120 µM (not active)

O=C(Nc1cccc(-c2nc3ccccc3o2)c1)c1ccc(N2C(=O)C3C4C=CC(C4)C3C2=O)cc1 (stereo not drawn)
EC50 [9]: 10.5 µM (active)
EC50 [10]: > 120 µM (not active)
EC50 [11]: 9.98 µM (active)

C=CCNc1nc(N)c([N+](=O)[O-])c(NC2CCCCC2)n1
EC50 [9]: 28.9 µM (active)
EC50 [10]: 0.21 µM (active)
EC50 [11]: > 120 µM (not active)

O=c1cnc2cnc(Oc3cccc(Cl)c3)nc2n1C[C@H]1CCCO1
AC50 [15]: 39.8 µM (inconclusive)
AC50 [8]: 15.8 µM (inconclusive)

COc1cccc(-c2cncnc2NCCc2c[nH]c3ccc(OC)cc23)c1
AC50 [8]: 0.1 µM (inconclusive)

c1ccc(C(c2ccccc2)N2CC[C@@]3(CCCNC3)C2)cc1
AC50 [8]: 31.6 µM (inconclusive)

O=C(CN1C(=O)c2cccc3cccc1c23)N1CCN(c2ccc(F)cc2)CC1
EC50 [5]: > 112 µM (not active)
EC50 [6]: > 112 µM (not active)

Cc1c(C(=O)N2CCCCC2)c(S(=O)(=O)N(C)Cc2ccccc2)c(C)n1C
EC50 [5]: > 112 µM (not active)
EC50 [6]: > 112 µM (not active)

COc1ccc2[nH]cc(CCNc3nc(-c4ccc(C(=O)N(C)C)cc4)nc4ccccc34)c2c1
AC50 [13]: 20 µM (inconclusive)
AC50 [8]: 1 µM (inconclusive)

CC(Sc1nnc(C(C)N(C)C)n1-c1ccc(Cl)cc1)C(=O)Nc1ccc2c(c1)OCO2 (stereo not drawn)
AC50 [8]: 15.8 µM (inconclusive)

CN(C)CCCN/C=C1\C(=O)NC(=O)N(CCc2ccc(F)cc2)C1=O
EC50 [1]: > 300 µM (not active)
EC50 [2]: > 300 µM (not active)

COCCNC(=O)CSc1ncnc2sccc12
AC50 [8]: 28.2 µM (inconclusive)

CCn1c(=O)c([N+](=O)[O-])c(NCCc2ccc(OC)c(OC)c2)c2ccccc21
EC50 [5]: > 112 µM (not active)
EC50 [6]: > 112 µM (not active)

CCCCc1ccc(Nc2nc(N3CCOCC3)nc(N3CCOCC3)n2)cc1
EC50 [5]: > 112 µM (not active)
EC50 [6]: > 112 µM (not active)

Cc1cc(C)n(C(=O)CCCCCCCCC(=O)n2nc(C)cc2C)n1
AC50 [14]: 15.8 µM (inconclusive)
AC50 [8]: 0.251 µM (inconclusive)

COc1cccc(-c2nc(C[S+]([O-])CC(=O)NCCc3ccc(C)cc3)c(C)o2)c1 (stereo not drawn)
EC50 [5]: > 112 µM (not active)
EC50 [6]: > 112 µM (not active)

COc1ccc(N2CCN(S(=O)(=O)c3c(C)nc4sccn4c3=O)CC2)cc1
EC50 [5]: > 112 µM (not active)
EC50 [6]: > 112 µM (not active)

O=C1CC(=O)C(n2cncn2)C(c2cccc(Cl)c2)C1 (stereo not drawn)
AC50 [15]: 3.98 µM (inconclusive)
AC50 [8]: 25.1 µM (inconclusive)

O=C(NCCCN1CCOCC1)C(=O)N/N=C/c1c2ccccc2cc2ccccc12
EC50 [9]: 12.2 µM (active)
EC50 [10]: 13.9 µM (active)
EC50 [11]: 9.11 µM (active)

COc1cccc(/C=N/Nc2nnc(C)n2N)c1OCc1ccccc1Cl
EC50 [9]: > 120 µM (not active)
EC50 [10]: > 120 µM (not active)
EC50 [11]: > 120 µM (not active)

Cc1ccc(C(=O)N/N=C/c2ccc(-c3cccc(C(F)(F)F)c3)o2)cn1
EC50 [9]: > 120 µM (not active)
EC50 [10]: > 120 µM (not active)
EC50 [11]: 11.9 µM (active)

COc1cccc(C(=O)Nc2ccc(-c3nnc(-c4ccco4)o3)cc2)c1
AC50 [15]: 2.82 µM (inconclusive)
AC50 [8]: 1.41 µM (inconclusive)
